Measured values: the NIST ThermoML archive (doi:10.1021/acs.jced.7b00347)
± gives the expanded uncertainty stated by the source.

Test: mn = molality of the nth substance listed, in mol/kg
Conditions: for surface tension liquid-gas: Ring tensiometer; for electrical conductivity: 100 kPa, Liquid, Alternating current cell with electrodes

CCCCCCCCCCCC[NH+](CCO)CC(C)O.[Cl-] (stereo not drawn) + O
Conditions	electrical conductivity [S/m]	surface tension liquid-gas [mN/m]
303.15 K, m1 = 1.54e-05	0.00051 ± 2.8e-05	–
303.15 K, m1 = 3.44e-05	0.000593 ± 3.3e-05	–
303.15 K, m1 = 3.859e-05	–	42.83 ± 0.58
303.15 K, m1 = 5.34e-05	0.000676 ± 3.7e-05	–
303.15 K, m1 = 7.23e-05	0.000759 ± 4.2e-05	–
303.15 K, m1 = 7.717e-05	–	38 ± 0.52
303.15 K, m1 = 9.13e-05	0.000841 ± 4.6e-05	–
303.15 K, m1 = 0.0001102	0.000924 ± 7.1e-05	–
303.15 K, m1 = 0.0001292	0.00101 ± 5.9e-05	–
303.15 K, m1 = 0.0001482	0.00109 ± 7.6e-05	–
303.15 K, m1 = 0.0001544	–	32.62 ± 0.46
303.15 K, m1 = 0.0001671	0.00117 ± 8.2e-05	–
303.15 K, m1 = 0.0001861	0.00126 ± 0.00022	–
303.15 K, m1 = 0.0002051	0.00134 ± 7.4e-05	–
303.15 K, m1 = 0.000224	0.00142 ± 7.9e-05	–
303.15 K, m1 = 0.0002315	–	29.91 ± 0.44
303.15 K, m1 = 0.000243	0.0015 ± 8.3e-05	–
303.15 K, m1 = 0.0002619	0.00159 ± 0.00018	–
303.15 K, m1 = 0.0002797	–	28.96 ± 0.43
303.15 K, m1 = 0.0002809	0.00167 ± 0.0001	–
303.15 K, m1 = 0.0003067	0.00174 ± 0.0001	–
303.15 K, m1 = 0.0003326	0.00181 ± 0.00011	–
303.15 K, m1 = 0.0003584	0.00188 ± 0.0001	–
303.15 K, m1 = 0.0003842	0.00195 ± 0.00011	–
303.15 K, m1 = 0.0004101	0.00202 ± 0.00015	–
303.15 K, m1 = 0.0004359	0.00209 ± 0.00012	–
303.15 K, m1 = 0.0004617	0.00216 ± 0.00019	–
303.15 K, m1 = 0.0004876	0.00223 ± 0.00013	–
303.15 K, m1 = 0.0005134	0.0023 ± 0.0003	–
303.15 K, m1 = 0.0005392	0.00237 ± 0.00013	–
303.15 K, m1 = 0.0005651	0.00244 ± 0.00014	–
303.15 K, m1 = 0.0005909	0.00251 ± 0.00016	–
303.15 K, m1 = 0.0006167	0.00258 ± 0.00014	–
303.15 K, m1 = 0.0006426	0.00265 ± 0.00015	–
303.15 K, m1 = 0.0006684	0.00272 ± 0.00036	–
303.15 K, m1 = 0.0006942	0.00279 ± 0.00015	–
303.15 K, m1 = 0.0007201	0.00285 ± 0.00016	–
303.15 K, m1 = 0.0007459	0.00293 ± 0.00024	–
303.15 K, m1 = 0.0007717	0.003 ± 0.00016	28.21 ± 0.42
303.15 K, m1 = 0.001543	–	27.64 ± 0.42
303.15 K, m1 = 0.002315	–	27.64 ± 0.42
303.15 K, m1 = 0.003087	–	27.64 ± 0.42
308.15 K, m1 = 8.952e-06	–	50.44 ± 0.67
308.15 K, m1 = 1.54e-05	0.00061 ± 3.4e-05	–
308.15 K, m1 = 1.543e-05	–	46.51 ± 0.62
308.15 K, m1 = 3.087e-05	–	41.89 ± 0.57
308.15 K, m1 = 3.51e-05	0.000702 ± 3.9e-05	–
308.15 K, m1 = 3.859e-05	–	40.38 ± 0.55
308.15 K, m1 = 5.47e-05	0.000794 ± 4.5e-05	–
308.15 K, m1 = 7.43e-05	0.000886 ± 5.1e-05	–
308.15 K, m1 = 7.717e-05	–	35.57 ± 0.49
308.15 K, m1 = 9.39e-05	0.000978 ± 5.7e-05	–
308.15 K, m1 = 0.0001136	0.00107 ± 6.3e-05	–
308.15 K, m1 = 0.0001332	0.00116 ± 6.9e-05	–
308.15 K, m1 = 0.0001528	0.00125 ± 7.5e-05	–
308.15 K, m1 = 0.0001544	–	31.04 ± 0.45
308.15 K, m1 = 0.0001724	0.00135 ± 8.1e-05	–
308.15 K, m1 = 0.000192	0.00144 ± 8.7e-05	–
308.15 K, m1 = 0.0002117	0.00153 ± 9.4e-05	–
308.15 K, m1 = 0.0002313	0.00162 ± 0.0001	–
308.15 K, m1 = 0.0002509	0.00171 ± 0.00011	–
308.15 K, m1 = 0.0002624	–	27.74 ± 0.42
308.15 K, m1 = 0.0002705	0.00181 ± 0.00011	–
308.15 K, m1 = 0.0002902	0.0019 ± 0.00012	–
308.15 K, m1 = 0.0003087	–	27.74 ± 0.42
308.15 K, m1 = 0.0003169	0.00198 ± 0.00012	–
308.15 K, m1 = 0.0003437	0.00207 ± 0.00013	–
308.15 K, m1 = 0.0003704	0.00215 ± 0.00014	–
308.15 K, m1 = 0.0003972	0.00224 ± 0.00014	–
308.15 K, m1 = 0.0004239	0.00232 ± 0.00015	–
308.15 K, m1 = 0.0004507	0.00241 ± 0.00015	–
308.15 K, m1 = 0.0004774	0.00249 ± 0.00016	–
308.15 K, m1 = 0.0005042	0.00258 ± 0.00016	–
308.15 K, m1 = 0.0005309	0.00266 ± 0.00017	–
308.15 K, m1 = 0.0005577	0.00275 ± 0.00017	–
308.15 K, m1 = 0.0005845	0.00283 ± 0.00017	–
308.15 K, m1 = 0.0006112	0.00291 ± 0.00018	–
308.15 K, m1 = 0.000638	0.003 ± 0.00018	–
308.15 K, m1 = 0.0006647	0.00308 ± 0.00019	–
308.15 K, m1 = 0.0006915	0.00317 ± 0.00019	–
308.15 K, m1 = 0.0007182	0.00325 ± 0.00019	–
308.15 K, m1 = 0.000745	0.00334 ± 0.0002	–
308.15 K, m1 = 0.0007717	0.00342 ± 0.0002	27.55 ± 0.42
308.15 K, m1 = 0.001543	–	27.08 ± 0.41
308.15 K, m1 = 0.002315	–	26.79 ± 0.41
308.15 K, m1 = 0.003087	–	26.79 ± 0.41
